The text below walks through data of patent EP1354870A1, “DIHYD[…]” (CONSEJO SUPERIOR DE INVESTIGACIONES CIENTIFICAS, priority 2000, dated 2002).

Structures are written as SMILES.

The assay concerns the target T1, dihydroceramide desaturase (Rattus norvegicus, UniProt Q5XIF5).
T1 construct: from tissue; host or cells: rat liver microsomes
T1 sequence (Q5XIF5 1-323): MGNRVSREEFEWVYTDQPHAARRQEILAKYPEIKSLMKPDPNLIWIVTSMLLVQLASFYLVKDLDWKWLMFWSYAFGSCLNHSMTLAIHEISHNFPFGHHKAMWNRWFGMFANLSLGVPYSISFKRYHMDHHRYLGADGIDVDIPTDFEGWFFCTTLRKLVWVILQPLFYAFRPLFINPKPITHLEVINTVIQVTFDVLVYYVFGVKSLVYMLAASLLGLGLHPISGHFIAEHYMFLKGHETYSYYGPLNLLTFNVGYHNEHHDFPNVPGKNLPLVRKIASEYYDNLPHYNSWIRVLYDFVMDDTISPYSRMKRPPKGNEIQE
Nature of the assay: Inhibitory activity on dihydroceramide desaturase in rat liver microsomes (GC-MS quantification of the desaturated product). It counts as biochemical. The following applies: substrate N-octanoyldihydrosphingosine 10 nmoles, NADH, 37°C for 30 minutes, without preincubation, effect dose-dependent. The method, then: The inhibitory activity of the type I compounds that is claimed in this patent was tested on rat liver microsomes, prepared as described in [Michel, C. van Echten-Deckert, G.; Rother, J.; Sandhoff, K.; Wang, E.; Merrill, A. H. J. Biol. Chem. 1997, 272, 22432-22437]. The dihydroceramide desaturase activity was determined according to the procedure described in Michel, C. van Echten-Deckert, G.; Rother, J.; Sandhoff, K.; Wang, E.; Merrill, A. H. J. Biol. Chem. 1997, 272, 22432-22437, with the following modifications: compound la in increasing doses of 0, 0.6, 1.25, 2.5, 5 and 10 nmoles, was solubilized in BSA-ethanol 9:1 (100µl) and to the resulting solution 10 nmoles of substrate dissolved in 10µl of ethanol were added. To this solution was added a total of 0.3 mg of the microsomal suspension containing the desaturase, and 30 µl of a […] solution of NADH in 0.1M phosphate buffer, pH 7.5. The suspension was incubated at 37°C for 30 minutes and the reactions were stopped by adding 0.5 mL of chloroform containing 1 nmol of N-hexanoylsphingosine as an internal standard for quantification. Repeated lipid extractions with chloroform were carried out (2 x 250 µl) and the combined organic extracts were evaporated to dryness under a stream of Nitrogen. The resulting residue was treated with 50 µl of bis-trimethylsilyltrifluoroacetamide at 25°C for 60 minutes. […]
(Microsomes from liver hold many membrane-bound enzymes, among them those of drug oxidation.)

Regarding `CCCCCCCCCCCCCC1=C(C(O)C(CO)NC(=O)CCCCCCC)C1` (single isomer, unassigned) [la], the IC50 amounted to 0.052 µM.

As a reminder, the IC50 is the midpoint of a concentration-inhibition curve.
